Results from patent publication US11319307B2, “2,3-dihydrobenzohurans as bromodomain inhibitors” (GLAXOSMITHKLINE INTELLECTUAL PROPERTY (NO.2) LIMITED, priority 2017, dated 2022).

Test system: BET family (BRD2, BRD3, BRD4 and BRDT) single and double mutant tandem domain proteins
Assay: Fluorescence Polarisation binding of Reference Compound X to mutant tandem BET proteins
Parameters: species or system Human
Method: The competition of the compounds of formula (I) with Reference Compound X for binding to the BET family (BRD2, BRD3, BRD4 and BRDT) was assessed using protein truncates spanning both bromodomain 1 (BD1) and bromodomain 2 (BD2). In order to monitor differential binding to either BD1 or BD2, single residue mutations of key tyrosines to alanine were made in the acetyl lysine binding pockets. To validate this approach, a double residue mutant tandem domain protein was produced for each of the BET family members. Utilising a Fluorescence Polarisation approach, binding affinities for each of the single and double mutants for Reference Compound X were determined. […] The affinities of the single mutated bromdomain tandem proteins for Reference Compound X were equi-potent with the corresponding non-mutated BET protein. […] In the TR-FRET competition assay, Reference Compound X is used at a concentration that is equivalent to the Kd for the non-mutated bromodomain, which ensures that no binding at the mutated bromodomain is detected. […]

`COc1ccc2c(c1)C(c1ccc(Cl)cc1)=N[C@@H](CC(=O)NCCCCCNC(=O)CCCCCC1(C)/C(=C/C=C/C=C/C3=[N+](CCCCS(=O)(=O)O)c4ccc(S(=O)(=O)O)cc4C3(C)C)N(CCCCS(=O)(=O)[O-])c3ccc(S(=O)(=O)O)cc31)c1nnc(C)n1-2` (some centres unmarked) [Reference Compound X] was tested, and the “reduction in Kd (affinity for Reference Compound X)” value (double mutant tandem proteins versus non mutated, wild type tandem BET proteins) was > 1000 fold and the “reduction of the Kd of the interaction between the mutated bromodomain and Reference Compound X” value (single mutations of Tyrosine to Alanine) was > 1000 fold.
